One test has as its system rabbit platelets. Put plainly: Inhibition of PAF-induced aggregation of rabbit platelets. The note with it: 80 µM compound, 5 min preincubation, PAF-induced aggregation (title: 0.1 nM PAF) vs DMSO alone; for inhibition at 80 µM: Oryctolagus cuniculus, Platelet. The format is cell-based. As to the method: The assay system used to evaluate the ability of compounds to inhibit the aggregation of platelets in response to exogenous stimuli is indicative of anti-thrombotic or thrombolytic activity.
Platelets were isolated from rabbit blood and prepared at a density of 2.4 x 10^8 cells/ml in Tyrodes buffer (pH 7.2) containing Ca^2+. Platelets were incubated with each compound for 5 min at 37°C prior to stimulation. Platelets were stimulated with 1 nM platelet activating factor (PAF; EC75) in the presence of each of the compounds and aggregation was monitored for 5 min. Compounds were solubilized in dimethylsulfoxide (DMSO) and aggregation was measured as a percentage of the response to 1 nM PAF obtained in the presence of the appropriate concentration of DMSO. The degree of inhibition caused by each sample was calculated using the control response in the presence of DMSO equal to 100%.

The test system of the next test is isolated trachea. The experiment in a line: Allergen (OA)-induced contraction of isolated trachea from sensitized guinea pigs. On the set-up: species or system guinea pig. The settings on record: Study 1, 20 µM compound. How it is done:
The effects of a number of the compounds described herein on allergen-induced bronchoconstriction were evaluated for anti-asthma activity. The ability of a compound to inhibit allergen-induced decreases in lung function in sensitized guinea pigs in response to antigen-challenge is indicative of anti-asthma activity. In particular, the model system is useful in the evaluation of the potential effects of a compound in the treatment of the early asthmatic reaction (EAR) when severe bronchoconstriction occurs.
Guinea pigs were exposed to a nebulized solution of 1% ovalbumin (OA) in saline for 15 min. […] Tracheal rings were prepared and bathed in Krebs-Henseleit solution at 37°C and aerated with 5% CO2 in O2. Tissues were suspended under a resting tension of 2 g and isometric contractions were measured using force-displacement transducers coupled to a polygraph. Tissues were incubated with each compound or 0.1% dimethylsulfoxide (as a control) for 20 min, after which increasing concentrations of OA (0.001 - 100 µg/ml) were added to the tissue. After the final concentration of OA was added and the response was recorded, the tissues were stimulated with 100 µM methacholine which caused maximum contraction of the trachea. The magnitude of the contraction induced by OA in the presence of each compound was expressed as a percentage of the maximum contraction obtained using methacholine (100 µM).

The subject of test [1] is ileum from sensitized guinea pigs. The experiment in a line: Antigen (ovalbumin)-induced contraction of isolated ileum from sensitized guinea pigs. Also noted: species or system guinea pig. The note with it: each 30 µM, 20 min; 100 µg/ml ovalbumin; mean, n=3-4, vs DMSO alone. How it is done: The ability of compounds to inhibit allergen-induced contraction of ileum from sensitized animals is indicative of antiallergic activity. Sensitized guinea pig ileum is particularly useful in measuring the immediate allergic response.
The guinea pig ileum has been used to evaluate the ability of compounds to inhibit allergen-induced histamine and mediator release causing smooth muscle contraction. Guinea pigs were sensitized by an intraperitoneal injection of 100 mg ovalbumin and an intramuscular injection of 50 mg ovalbumin on day 0, followed by a second intramuscular injection of 50 mg ovalbumin on day 1. […] Segments of ileum were prepared and suspended, with muscle contractions being measured in the longitudinal plane, in Tyrode's buffer at 37°C and aerated with 5% CO2 in O2. Tissues were suspended under a resting tension of 2 grams and isometric contractions were measured using force-displacement transducers coupled to a polygraph. Tissues were stimulated with 3 µM histamine 3 times to ensure reproducible contractions were obtained. Tissues were then incubated with each compound (30 µM) or 0.15% dimethylsulphoxide (DMSO) as a control, for 20 min, after which time the tissues were challenged with 100 µg/ml ovalbumin. The magnitude of the contraction induced by OA in the presence of each compound was expressed as a percentage of the contraction obtained to 3 µM histamine. […]

Test [2] concerns rat mast cell line (RBL-2H3). Put plainly: Antigen-induced release of hexosaminidase from passively sensitized rat mast cells. The format is cell-based. The note with it: Table 3; each 25 µM; vs DMSO alone. As to the method:
The anti-allergic effects of various polyhydroxylated steroids of the present invention were evaluated by measuring their effect on antigen-induced secretion of hexosaminidase from a passively sensitized rat mast cell line (RBL-2H3) and a murine mast cell line (MC/9). The ability of agents to inhibit the release of mast cell granule contents, e.g., histamine and hexosaminidase, is indicative of anti-allergy and/or anti-asthma activity.
Hexosaminidase is released from the mast cell granule along with histamine and other mediators during antigen challenge. RBL-2H3 and MC/9 cells were grown in culture and passively sensitized to dinitrophenol (DNP) using anti-human-DNP (IgE). […] Aliquots of the supernatant were removed and used to measure the amount of hexosaminidase released during challenge with the antigen. […] The effect of each compound was determined as a percentage of the antigen-induced response (minus background release) obtained in the presence of DMSO alone, as set forth in Tables 2 and 3. These values were used to determine the degrees of inhibition of antigen-induced hexosaminidase release from the cells.

Consider `C[C@]12CC[C@@H](O)[C@H](O)[C@@H]1[C@@H](O)[C@H](O)[C@@H]1[C@@H]2CC[C@]2(C)[C@@H](O)CC[C@@H]12` [Compound 241, 3α,4β,6α,7β,17β-pentahydroxy-5α-androstane], for which testing at 80 µM in the test on rabbit platelets gave an inhibition of 93.1%. The “percentage contraction compared to 100µM methacholine (100%)” value (from here on “percentage contraction … (100%)”) with isolated trachea (0.001 µg/ml OA) came out at 8.5%; in the test with isolated trachea (0.003 µg/ml OA), 12.6%; in the test on isolated trachea (0.01 µg/ml OA), 17.1%; with isolated trachea (0.03 µg/ml OA), 25.8%; with isolated trachea (0.1 µg/ml OA) it was 31.0%; with isolated trachea (0.3 µg/ml OA), 33.4%. Also, the “percentage contraction … (100%)” value came out at 36.3% in the test with isolated trachea (1.0 µg/ml OA), 34.4% with isolated trachea (3.0 µg/ml OA), 35.0% with isolated trachea (10.0 µg/ml OA) and 37.0% in the test with isolated trachea (30.0 µg/ml OA).
For the molecule `CC(C)[C@@H]1CC(O)OC([C@@H](C)[C@H]2CC(=O)[C@@H]3[C@@H]4C(O)C(O)C5C(O)C(O)CC[C@]5(C)[C@H]4CC[C@]23C)C1` (stereo partly drawn) [Compound 165, 22,29-epoxy-3,4,6,7,29-pentahydroxy-14β-stigmastan-15-one], the inhibition (commonly how much of the control response was suppressed) at 80 µM with rabbit platelets was found to be 51.2%. In addition, in test [1], the “Percentage Inhibition” value was found to be 27.0%.
On to “3β, 4α, 6α, 7β, 17β-pentahydroxy-5α-androstane 6,7-acetonide [Compound 246]”, for which, in the test on rabbit platelets, the %Inhibition (usually the change of the read-out against control, counted positive when it falls) at 80 µM came out at 21%. For the same molecule, the “percentage contraction … (100%)” value with isolated trachea (0.001 µg/ml OA) stood at 2.6%; in the test on isolated trachea (0.003 µg/ml OA), 4.0%; in the test on isolated trachea (0.01 µg/ml OA), 6.5%; in the test with isolated trachea (0.03 µg/ml OA), 9.7%; in the test with isolated trachea (0.1 µg/ml OA), 12.2%; in the test with isolated trachea (0.3 µg/ml OA), 15.3%. Also, the “percentage contraction … (100%)” value with isolated trachea (1.0 µg/ml OA) stood at 20.0%; in the test with isolated trachea (3.0 µg/ml OA), 21.0%; in the test on isolated trachea (10.0 µg/ml OA) it was 23.0%; with isolated trachea (30.0 µg/ml OA), 22.0%. Further, in test [2], the “Percentage Inhibition (mean) RBL-2H3 Cells” value came out at 29.4%.
As to `CC[C@H]1CCC2C3C(CC[C@@]21C)[C@@]1(C)CC[C@@H](O)CC1[C@@H](O)[C@@H]3O` (some centres unmarked) [Compound 339], the “Percentage Inhibition” value in test [1] is on record as 36.3%.

The record behind these values is patent EP1304333A2, “6,7-Oxygenated steroids and uses related thereto” (Inflazyme Pharmaceuticals, Ltd., priority 1996, dated 1998).
